From US10231985B2, “Compounds and compositions comprising such compounds for the prevention or treatment of dyslipidaemias” (CENTRE NATIONAL DE LA RECHERCHE SCIENTIFIQUE, priority 2013, dated 2019)

How the values were obtained:
[1] = test system: hem1Δ yeasts grown under SFA accumulation conditions; assay: Restoration of growth of lipointoxicated hem1Δ yeast; format: cell-based, Saccharomyces cerevisiae; conditions: after 3 days, increasing concentrations
Procedure: The strain bearing the hem1Δ mutation is grown, under aerobic conditions, with shaking and at 28° C., in liquid YPG^A medium (YPG (1% yeast extract (w/v), 1% peptone (w/v) and 2% glucose (w/v)) supplemented with 80 μg/ml 6-aminolevulinic acid (ALA)). Lipointoxication by saturated fatty acids (SFA) is caused by depletion of unsaturated fatty acids (UFA), the synthesis of which is dependent on the presence of heme (the prosthetic group of the Ole1p enzyme in particular), by transfer to YPG^+ medium (YPG supplemented with 80 μg/ml ergosterol to compensate for the sterol depletion obtained under this condition). Lipointoxication can be induced on solid YPG^+ medium+2% agar (w/v) by transferring 3500 cells (hem1Δ from preculture in YPG^A) per cm^2 or, alternatively, in liquid medium by inoculating 2×10^6 cells/ml YPG^+. Classically, the effects of SFA lipointoxication are analyzed 7 hours after the transfer to YPG^+ medium. The ability of a compound to counter the deleterious effects of SFA lipointoxication, in turn, is evaluated successively to the addition of this compound on (or in) the YPG^+ transfer medium, after seeding with the cells.
Following the induction of SFA lipointoxication (for hem1Δ grown on solid medium) 5 μl drops of solutions of the various compounds at 10 mM in dimethylsulfoxide (DMSO) or ethanol (EtOH) are deposited on the surface of the agar. The ability of a compound to counter the arrest of lipid-induced cell growth is estimated by the appearance of a halo of hem1Δ colonies at the site of the deposition of said compound after 3 days of culture at 28° C. (see Deguil et al., 2011).
Jointly with the induction of SFA lipointoxication (for hem1Δ in liquid medium), the various compounds are added to the cultures at an initial concentration of 200 μM. Proliferation is monitored by spectrometric measurement of cell density, at regular time intervals (every hour over the duration of the observation). At a wavelength of 600 nm, one optical density unit (OD600 nm) corresponds to 2×10^7 cells/ml.

[2] = test system: QM strain (cells not synthesizing triglycerides); assay: Toxicity test on QM strain (growth inhibition halos); format: cell-based, Saccharomyces cerevisiae; conditions: 5 μl drops on agar, after three days
Procedure: Drops (5 μl) of OAG, LPA or oleic acid were deposited, from stock solutions at the indicated concentrations, on the surface of an agar medium over which the QM strain had been spread beforehand. […] These halos are, however, not observed in the presence of LPA or of OAG.
In parallel, wild-type (WT) and quadruple mutant (QM) strains are grown, under aerobic conditions, with shaking and at 28° C., in liquid YPG medium before seeding 3500 cells per cm^2 of YPG+2% agar (w/v). Following this transfer to solid medium, 1 μl drops of 1, 10 and 100 mM solutions of the various compounds in DMSO or EtOH are deposited on the agar surface. Separately, DMSO and EtOH are also deposited in order to evaluate the intrinsic toxicity of these two solvents. After 3 days of culture at 28° C., the toxicity of the compounds tested is evaluated by comparing the growth inhibition halo diameters obtained for the depositions of pure solvent with those of the depositions of the various concentrations of the compounds tested. Unlike the WT strain, the QM strain is incapable of buffering excess exogenous oleic acid in the form of neutral lipids (triglycerides (TG) or esterified sterols (ES)) in lipid droplets.

[3] = test system: BRIN-BD11 pancreatic β-cells; assay: Cell viability of palmitic acid-lipointoxicated pancreatic β-cells (propidium iodide, flow cytometry); format: cell-based, rat; conditions: BRIN-BD11, 200 μM palmitic acid
Procedure: Pancreatic β-cells, BRIN-BD11, were grown under control conditions or in the presence of an exogenous source of saturated fatty acid (200 μM palmitic acid), as described by Dhayal & Morgan (2011), in order to generate lipointoxication conditions, with or without the addition of OAG. A) The proportion of dead cells was estimated in the absence (control) or presence of palmitic acid, for increasing concentrations of OAG. B) eIF2α phosphorylation levels were also analyzed under the various conditions by Western blot, in the presence or absence (Ø) of OAG, and were normalized to total eIF2α.
The lipid species are prepared in ethanol before being complexed with bovine serum albumin (BSA, first depleted of fatty acids) by incubation for 1 hour at 37° C. The palmitic acid stock solution is obtained by adding one volume of ethanol before the whole is heated to 70° C. for homogenization. OAG and LPA solutions are prepared in 100% ethanol at room temperature. For the incubations of mammalian cells, the final BSA and ethanol concentrations in the culture medium are kept at 1% and 0.5% (w/v), respectively.
The rat pancreatic β-cell line (BRIN-BD11) is grown in complete RPMI-1640 medium, containing 11 mM glucose and supplemented with 10% (v/v) fetal calf serum (FCS), 2 mM L-glutamine, 100 U/ml penicillin and 100 μg/ml streptomycin. For each experiment, the cells are first seeded at a density of 0.5×10^5 cells/ml in 6-well plates for 24 hours. Thereafter, the complete medium is replaced by an equivalent lacking FCS but containing the lipid reagents of interest, at the desired concentrations, complexed with BSA. Under the control conditions, identical amounts of BSA and ethanol are then used. […] After incubation on ice for 10 minutes, the samples thus obtained are analyzed by flow cytometry. A Beckman Coulter EPICS XL MCL is used for the quantification, an FL3 channel is used to detect the emissions of the PI intercalated in the DNA, and the analysis is carried out using the EXPO32 ADC software (Applied Cytometry Systems, V 1.1 build 207).

lipase = assay: Resistance to hydrolytic activity of lipases (thin-layer chromatography); format: in vitro ADME; conditions: 10 U of lipase, 30 minutes, 37° C.
Procedure: OAG (15 μmol) and N,N-diethanololeamide were subjected (+) or not (−) to exposure to 10 U of lipase for 30 minutes at 37° C. Following the incubation, the lipid species were extracted from the samples before being separated by thin-layer chromatography.

[4] = test system: phospholipids of the cellular membranes (hem1Δ strain); assay: Fatty acid content of cellular phospholipids (lipid extraction, ESI-MS); format: cell-based, Saccharomyces cerevisiae
Procedure: The hem1Δ strain is grown in liquid medium (YPG^A, YPG^+, or YPG^++200 μM compound to be tested) under aerobic conditions, with shaking and at 28° C. for 7 hours, from an initial cell concentration of 2×10^6 cells/ml. At the conclusion of the culture, 10^8 cells are collected in order to carry out a total lipid extraction. After having suspended the cells in 1 ml of distilled water at 4° C., 500 μl of glass beads (Ø 0.6 mm) are added and the whole then undergoes 3 sequences of 20 seconds at 5000 rpm in a shaker (the tubes are kept on ice between each of the 3 sequences). The cell lysate then obtained, supplemented with bead-washing solution (1 ml), is then transferred to a 40 ml glass tube (Corex™) before carrying out the lipid extraction using a 2:1 (v/v) methanol:chloroform ratio. First, 6 ml of methanol is added and the whole is vortexed for 30 seconds and then incubated for 15 minutes at 65° C. Once the mixture cools to room temperature, 3 ml of chloroform is added and then the whole is vortexed again for 30 seconds before allowing the extraction to proceed for 16 hours. Later, the sample is centrifuged for 12 minutes at 10000 g before transferring the supernatant to a new Corex™ tube. After adding 2 ml of chloroform and then 4 ml of distilled water, the whole is vortexed for 30 seconds and then centrifuged for 8 minutes at 3000 g. After removing the resulting upper phase, the lower organic phase is collected in a glass hemolysis tube. Finally, the solvent is evaporated under a stream of nitrogen at 80° C. in order to obtain the total cellular lipid samples.
The total cellular lipid samples are resuspended in 1 ml of dichloromethane while being vortexed for 30 seconds. The whole is deposited on a silica column (BOND ELUT-SI, 100 mg 1 ml) preconditioned successively with 3 ml of methanol and then 2 ml of dichloromethane. The fraction retained by the column is then washed successively with 2 ml of dichloromethane and then 3 ml of acetone. Finally, 2 ml of a 50:45:5 (v/v/v) chloroform/methanol/water mixture is deposited on the column and the phospholipids thus eluted are collected in a glass hemolysis tube. The solvent is evaporated under nitrogen at 80° C. in order to obtain the cellular phospholipid samples.
Once resuspended in 100 μl of the mixture Mix^− (2:1:1 (v/v/v) isopropanol/acetonitrile/water+1% (v/v) triethylamine) or the mixture Mix^+ (2:1:1 (v/v/v) isopropanol/acetonitrile/water+1% (v/v) formic acid), the samples are analyzed by electrospray ionization mass spectrometry (ESI-MS) in negative or positive mode, respectively, and the results obtained are used to analyze the fatty acid content of the various phospholipid species.

CCCCCCCC/C=C\CCCCCCCC(=O)O [oleic acid, reference compound]
Restoration of the growth of hem1Δ yeasts [1]: restore the growth
Growth inhibition halos on QM strain [2]: growth inhibition halos (absence of colonies) can be observed

CCCCCCCC/C=C\CCCCCCCC(=O)N(CCO)CCO [N,N-diethanololeamide]
Apoptosis / proportion of dead cells of pancreatic β-cells [3]: prevent apoptosis
Hydrolysis by lipases (lipase): resists hydrolysis by lipases
Effect on fatty acid composition of membrane phospholipids [4]: without restoring a normal diunsaturated phospholipid composition

CCCCCCCC/C=C\CCCCCCCC(=O)OCC(CO)(CO)CO [3-hydroxy-2,2-bis(hydroxymethyl)propyl oleate]
Apoptosis / proportion of dead cells of pancreatic β-cells [3]: prevent apoptosis
Effect on fatty acid composition of membrane phospholipids [4]: without restoring a normal diunsaturated phospholipid composition
